Assay results taken from PubChem BioAssay (NCI).
“And” between values parts separate entries of the source, which are not always exact repeats. Equal values may be shown once.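 All cell lines were grown in 96-well plates and treated with compound for 48 hours. GI50: concentration for 50% inhibition of growth. TGI marks complete inhibition of growth.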

How the values were obtained:
Assay in all cases: NCI-60 cell line screen, 48 h
A549 NSCLC = test system: A549 NSCLC
HT29 colon = test system: HT29 colon
MDA-MB-231 breast = test system: MDA-MB-231 breast
NCI-H460 lung = test system: NCI-H460 lung
SF-268 CNS = test system: SF-268 CNS
SK-MEL-5 melanoma = test system: SK-MEL-5 melanoma
SN12C renal = test system: SN12C renal
UO-31 renal = test system: UO-31 renal
ACHN renal = test system: ACHN renal
HCT-15 colon = test system: HCT-15 colon

SMILES | GI50 (A549 NSCLC) [µM] | TGI (A549 NSCLC) [µM] | GI50 (HT29 colon) | TGI (HT29 colon) [µM] | GI50 (MDA-MB-231 breast) [µM] | TGI (MDA-MB-231 breast) [µM] | GI50 (NCI-H460 lung) [µM] | TGI (NCI-H460 lung) [µM] | GI50 (SF-268 CNS) | TGI (SF-268 CNS) [µM] | GI50 (SK-MEL-5 melanoma) | TGI (SK-MEL-5 melanoma) | GI50 (SN12C renal) | TGI (SN12C renal) [µM] | GI50 (UO-31 renal) | TGI (UO-31 renal) [µM] | GI50 (ACHN renal) | TGI (ACHN renal) [µM] | GI50 (HCT-15 colon) | TGI (HCT-15 colon) [µM]
COc1ccc2c(c1)C(=O)c1c-2c(N2CCN(C(=O)CCNCCNCCN)CC2)nc2ccccc12 | 9.51 | 29.4 | 2.43 µM | 4.88 | 7.25 | 27.5 | 2.4 | 5.42 | 4.97 µM | 20.3 | 17.6 µM | 36.6 µM | 12.2 µM | 38.6 | 10.5 µM | 30.4 | – | – | – | –
CC1(C)CCc2c(c(N=Nc3ccccc3F)c3ccccc3c2O)O1 | 34 | > 100 | – | – | 17.6 | 37.9 | 38.3 | > 100 | 76.3 µM | > 100 | 52.6 µM | > 100 µM | 22.7 µM | 53.1 | 54.7 µM | > 100 | 22 µM | 52.5 | 78.3 µM | > 100
C[C@]12CCc3nonc3C1CC[C@@H]1C2CC[C@@]2(C)C1CC[C@@H]2O (stereo partly drawn) | – | > 100 | – | > 100 | – | – | – | > 100 | – | > 100 | – | > 100 µM | – | > 100 | – | > 100 | – | > 100 | – | > 100
CCOC(=O)c1c(-c2ccc(OC)c(O)c2)c(C#N)c(=S)n(C2OC(COC(C)=O)C(OC(C)=O)C(OC(C)=O)C2OC(C)=O)c1-c1ccccc1 (stereo not drawn) | – | > 100 | 36.7 µM and > 100 µM | > 100 | – | – | – | > 100 | 34 µM and > 100 µM | > 100 | 15.5 µM and > 100 µM | 33.4 µM and > 100 µM | 33.8 µM and > 100 µM | > 100 | 37 µM and > 100 µM | > 100 | 36.6 µM and > 100 µM | > 100 | 43.1 µM and > 100 µM | > 100
COc1ccc(-c2cc(=O)c3cc(C)c(C)c(C(=O)O)c3o2)cc1 | – | > 100 | – | > 100 | – | – | – | > 100 | – | – | – | – | – | > 100 | – | > 100 | – | 94.4 | – | > 100
CN(C)CCN(C)C(=O)c1cccc2cccc(C(=O)O)c12 | – | > 100 | – | > 100 | – | – | – | > 100 | – | > 100 | – | > 100 µM | – | > 100 | – | > 100 | – | > 100 | – | > 100
COc1ccc([Se][Se]c2ccc(OC)cc2OC)c(OC)c1 | – | > 100 | – | > 100 | – | – | – | > 100 | – | 4.97 | – | 29.3 µM | – | – | – | 5.31 | – | 8.89 | – | 4.33
N#CC(C(=O)CCC(=O)Nc1cccc(C(F)(F)F)c1)c1ccccc1 (stereo not drawn) | – | > 100 | – | > 100 | – | – | – | > 100 | – | > 100 | – | > 100 µM | – | > 100 | – | > 100 | – | > 100 | – | > 100
COc1cc2c(c(OC)c1OC)-c1c(c3ccc([N+](=O)[O-])cc3c(=O)n1CCCBr)C2=O | 62.8 | > 100 | > 100 µM | > 100 | 31.3 | > 100 | 8.53 | > 100 | 4.83 µM | 45.8 | 19.8 µM | 65.8 µM | 19.7 µM | > 100 | 14.4 µM | 72.5 | – | – | – | –
COc1cc(/C=C2\NC(=O)C3Cc4c(OC)c(C)c(OC)c(OC)c4C2N3C)c(OC)c(C)c1OC (stereo not drawn) | – | > 100 | – | > 100 | – | – | – | – | – | > 100 | – | > 100 µM | – | > 100 | – | > 100 | – | > 100 | – | –
Cc1[nH]c2ccccc2c1C1=NO/C(=N\O)C(c2c(C)[nH]c3ccccc23)C1 (stereo not drawn) | – | > 100 | – | 58.9 | – | – | – | > 67.6 | – | > 100 | – | > 31.6 µM | – | > 100 | – | > 80.5 | – | > 91.1 | – | > 100
O=S1(=O)c2cc(S(=O)(=O)n3ccnc3)ccc2NC2=NCCCN21 | – | > 100 | – | 46.3 | – | – | – | – | – | > 100 | – | 49.6 µM | – | > 100 | – | > 100 | – | > 100 | – | –
COc1ccc(C2=NN(C(C)=O)C(c3ccc(Oc4ccnc5cc(Cl)ccc45)c(OC)c3)C2)cc1 (stereo not drawn) | – | – | – | – | 7.52 | > 100 | – | – | 9.28 µM | > 100 | > 100 µM | > 100 µM | > 100 µM | > 100 | > 100 µM | > 100 | 4.03 µM | > 100 | > 100 µM | > 100
CC(=O)NCc1c(C(N)=O)ncn1Cc1ccccc1 | – | > 100 | – | > 100 | – | – | – | > 100 | – | – | – | > 100 µM | – | > 100 | – | – | – | > 100 | – | > 100
COc1ccc(-c2oc3c(OC)c(OC)c(OC)c(O)c3c(=O)c2OC)cc1O | < 0.01 | 12.3 | – | 36.8 | – | – | < 0.01 | 0.138 | < 0.01 µM | 2.82 | < 0.01 µM | 0.995 µM | < 0.01 µM | > 100 | < 0.01 µM | 5.81 | 0.159 µM | > 100 | – | –
O=C(Nc1ccccc1Cl)c1ccc(NC2=C(Cl)C(=O)N(C3CCCCC3)C2=O)cc1 | 13.3 | 32.9 | 10.8 µM | 30 | 13.7 | 33.3 | 19.7 | 52.1 | 20.2 µM | 52.9 | 11.5 µM | 40.3 µM | – | – | 16.6 µM | 42.3 | 10.6 µM | 30.4 | 6.79 µM | 25.2
N#CC1(N2CCCC2)CCC2(CC1)OCCO2 | – | > 100 | – | > 100 | – | – | – | > 100 | – | > 100 | – | > 100 µM | – | > 100 | – | > 100 | – | > 100 | – | > 100
CO/C=C(\Br)c1ccc2c(c1)OCO2 | – | > 100 | – | – | – | – | – | – | – | > 100 | – | – | – | > 100 | – | > 100 | – | > 100 | – | –
COc1ccccc1NC(=O)C1=C(C)NC(C)=C(C(=O)Nc2ccccc2OC)C1c1ccccc1Cl | – | > 100 | – | > 100 | – | – | – | > 100 | – | > 100 | – | > 100 µM | – | > 100 | – | > 100 | – | > 100 | – | > 100
